Reference: patent US20260297542A1, “HERBICIDE RESISTANT PLANTS” (SYNGENTA CROP PROTECTION AG, priority 2023, published 2026)
Substitutions are numbered along the chain they refer to.

Key:
Assay in all cases: E. coli hemG growth inhibition by herbicide, AtPPO1 variant
Format in all cases: cell-based
Details in all cases: read-out: percentage growth inhibition
AtPPO1 V447I = biological target: T1, AtPPO1 V447I (Arabidopsis thaliana, UniProt P55826, V447I)
T1 construct: expressed in transfected cells; host or cells: E. coli BL21(DE3) hemG (pET24a, T7 promoter)
T1 sequence (P55826 35-537 V447I): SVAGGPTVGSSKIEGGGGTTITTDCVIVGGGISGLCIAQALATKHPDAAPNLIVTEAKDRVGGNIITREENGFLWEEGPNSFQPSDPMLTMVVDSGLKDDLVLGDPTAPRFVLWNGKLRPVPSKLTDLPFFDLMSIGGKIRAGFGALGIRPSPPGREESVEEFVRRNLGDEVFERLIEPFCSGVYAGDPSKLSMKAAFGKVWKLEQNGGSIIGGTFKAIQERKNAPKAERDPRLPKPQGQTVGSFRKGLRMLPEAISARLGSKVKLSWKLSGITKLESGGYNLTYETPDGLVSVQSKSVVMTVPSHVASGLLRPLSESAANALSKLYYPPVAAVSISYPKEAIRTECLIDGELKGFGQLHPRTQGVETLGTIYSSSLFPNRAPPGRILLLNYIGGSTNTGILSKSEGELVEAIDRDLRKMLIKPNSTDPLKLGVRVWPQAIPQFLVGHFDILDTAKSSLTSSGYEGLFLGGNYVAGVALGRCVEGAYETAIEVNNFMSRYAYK
Procedure, shortened: (§1)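 Variant plasmids were transformed into hemG-null BL21(DE3) and precultured 24 h with hematin. Washed cells were diluted 1:100 into Terrific broth containing 0.1 mM IPTG and herbicide (6.25 ppm 0 or E; 0.78 ppm B) or DMSO. After 24 h at 37° C, OD600 gave percent inhibition.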

AtPPO1 T461Q = biological target: T2, AtPPO1 T461Q (Arabidopsis thaliana, UniProt P55826, T461Q)
T2 construct: expressed in transfected cells; host or cells: E. coli BL21(DE3) hemG, pET24a plasmid
T2 sequence (P55826 35-537 T461Q): T1 sequence (P55826 35-537 V447I) with I413V, T427Q
Procedure, shortened: as §1

AtPPO1 L479N = biological target: T3, AtPPO1 L479N (Arabidopsis thaliana, UniProt P55826, L479N)
T3 construct: expressed in transfected cells; host or cells: E. coli BL21(DE3) hemG, pET24a plasmid
T3 sequence (P55826 35-537 L479N): T1 sequence (P55826 35-537 V447I) with I413V, L445N
Procedure, shortened: as §1

AtPPO1 V88I = biological target: T4, AtPPO1 V88I (Arabidopsis thaliana, UniProt P55826, V88I)
T4 construct: expressed in transfected cells; host or cells: E. coli BL21(DE3) hemG (hemG replaced by CmR), pET24a plasmid
T4 sequence (P55826 35-537 V88I): T1 sequence (P55826 35-537 V447I) with V54I, I413V
Procedure, shortened: as §1

SMILES	inhibition at 6.25 ppm (AtPPO1 V447I)	inhibition at 6.25 ppm (AtPPO1 T461Q)	inhibition at 6.25 ppm (AtPPO1 L479N)	inhibition at 6.25 ppm (AtPPO1 V88I)	inhibition at 0.78 ppm (AtPPO1 V447I)	inhibition at 0.78 ppm (AtPPO1 T461Q)	inhibition at 0.78 ppm (AtPPO1 L479N)	inhibition at 0.78 ppm (AtPPO1 V88I)
CCOC(=O)[C@]1(C)CC(c2cc(-n3c(=O)n(C)c(=S)n(C)c3=O)c(F)cc2Cl)=NO1 [Herbicide D, ethyl (5S)-3-[2-chloro-5-(3,5-dimethyl-2,6-dioxo-4-thioxo-1,3,5-triazinan-1-yl)-4-fluoro-phenyl]-5-methyl-4H-isoxazole-5-carboxylate]	36%	22%	3%	43%				
C#CCN1C(=O)C(F)(F)Oc2cc(F)c(-n3c(=O)n(C)c(=S)n(C)c3=O)cc21 [Herbicide B, trifludimoxazin]					35%	31%	23%	32%
CC(C)N(C)S(=O)(=O)NC(=O)c1cc(-n2c(=O)cc(C(F)(F)F)n(C)c2=O)c(F)cc1Cl [Herbicide E, saflufenacil]	61%	35%	31%	66%				
